“Also recorded” adds a separate entry of the source.
Legend:
U2OS = assay: 3 day MTS cytotoxicity assay, U2OS; type: cell-based; settings: Homo sapiens, ITK/BTK-negative, mean ± SD, n ≥ 6
Procedure: (§1) The cytotoxic activity of all the 10 compounds was tested under in vitro conditions using a 3 day standard 3-(4,5-dimethylthiazol-2yl)-5-(3-carboxymethoxyphenyl)-2-(4-sulfophenyl)-2H-tetrazolium reduction assay in 384-well plates on a robotic high-throughput screening platform (HighResBio, Boston, MA) as described elsewhere.[38] The IC50 values were calculated from the respective dose–response curves of compounds with Dotmatics (San Diego, CA, USA).

CCRF-CEM = assay: 3 day MTS cytotoxicity assay, CCRF-CEM; type: cell-based; settings: Homo sapiens, ITK-positive, mean ± SD, n ≥ 6
Procedure: as §1

JURKAT = assay: 3 day MTS cytotoxicity assay, JURKAT; type: cell-based; settings: Homo sapiens, ITK-positive, mean ± SD, n ≥ 6
Procedure: as §1

MRC-5 = assay: 3 day MTS cytotoxicity assay, MRC-5; type: cell-based; settings: Homo sapiens, MRC5; MRC-5, non-cancer fibroblasts; mean ± SD, n ≥ 6
Procedure: as §1

HCT116 = assay: 3 day MTS cytotoxicity assay, HCT116; type: cell-based; settings: Homo sapiens, HCT-116; HCT116, ITK/BTK-negative; mean ± SD, n ≥ 6
Procedure: as §1

BJ = assay: 3 day MTS cytotoxicity assay, BJ; type: cell-based; settings: Homo sapiens, non-cancer fibroblasts, mean ± SD, n ≥ 6
Procedure: as §1

HCT116p53^–/– = assay: 3 day MTS cytotoxicity assay, HCT116p53-/-; type: cell-based; settings: ITK/BTK-negative, mean ± SD, n ≥ 6
Procedure: as §1

RAMOS = assay: 3 day MTS cytotoxicity assay, RAMOS; type: cell-based, human; settings: for activity in RAMOS cells: BTK-high; for IC50: Homo sapiens, Ramos, BTK-positive, mean ± SD, n ≥ 6
Procedure: as §1

A549 = assay: 3 day MTS cytotoxicity assay, A549; type: cell-based; settings: Homo sapiens; A549, ITK/BTK-negative; mean ± SD, n ≥ 6
Procedure: as §1

K562 = assay: 3 day MTS cytotoxicity assay, K562; type: cell-based; settings: Homo sapiens; K562, BTK-positive; mean ± SD, n ≥ 6
Procedure: as §1

[1] = Parallel artificial membrane permeability assay (PAMPA); type: in vitro ADME; settings: passive diffusion
Procedure: (§2) Selected compounds were assayed for human plasma and liver microsomal stability in vitro, PAMPA and cellular permeability models of gastrointestinal resorption, and the blood–brain barrier using Caco-2 and MDR1-MCDK cells as previously described.[38] Samples were analyzed in an Agilent RapidFire 300 High-Throughput Mass Spectrometry System (RF-MS; Agilent, Wakefield, MA) with subsequent detection in a Qtrap 5500 mass spectrometer (AB Sciex, Concord, Canada).

p-p38 (Thr180/Tyr182) = assay: Western blot of p-p38 in LPS-stimulated RAMOS cells; type: cell-based, human; settings: RAMOS cells stimulated with LPS 10 min, then 50 μM for 3 h
Procedure: (§3) RAMOS cells were plated at 0.5 × 10^6/mL density in six-well plates. After 24 h, cells were treated with compounds at concentrations of 1, 10, and 50 μM for 24 h. The concentration of the vehicle was 0.5% in the highest test drug concentration (50 μM). LPS stimulation of RAMOS cells followed by drug treatment was performed as described previously.[19] […]
(§4) Primary antibodies used were purchased from Cell Signaling Technology, Inc., Massachusetts, USA, and included BTK (1:1000; Cat. # 3533S), phosphor-BTK (Tyr223) (1:1000; Cat # 5082S), p44/42 MAPK (ERK1/2) (1:1000; Cat # 9102S), phospho-p44/42 MAPK (ERK1/2) (Thr202/Tyr204) (1:1000; Cat # 4376S), p38 MAPK (1:1000; Cat # 9212S), phospho-p38 MAPK (Thr180/Tyr182) (1:1000; Cat # 9211S), Lyn (C13F9) (1:1000: Cat # 2796), phospho-Lyn (Tyr507) (1:1000; Cat #2731), Syk (1:1000; Cat # 2712), phospho-Syk (Tyr525/526) (C87C1) (1:1000; Cat # 2710), and GAPDH (1:4000; Cat. # 2118). […] Band intensities were quantified using NIH ImageJ Software (NIH, Bethesda, Maryland, USA).

[2] = MDR1-MDCK permeability (blood–brain barrier model); type: in vitro ADME; settings: dog
Procedure: as §2

MDR1 = assay: MDR1-MDCK permeability (blood–brain barrier model); type: in vitro ADME; settings: dog
Procedure: as §2

MDR1-MDCK cells = assay: MDR1-MDCK permeability (blood–brain barrier model); type: in vitro ADME
Procedure: as §2

[3] = Liver microsomal stability; type: in vitro ADME; settings: human liver microsomes, intrinsic clearance category
Procedure: as §2

[4] = Caco-2 permeability (gastrointestinal resorption model); type: in vitro ADME; settings: human, Caco-2
Procedure: as §2

Caco-2 cells = assay: as above; type: in vitro ADME; settings: for active efflux: Caco-2; for Caco-2 category: Caco-2 permeability
Procedure: as §2

Plasma stability = type: in vitro ADME; settings: human plasma, in vitro
Procedure: as §2

pBTK (Tyr223) [5] = assay: Western blot of pBTK in LPS-stimulated RAMOS cells; type: cell-based, human; settings: RAMOS cells stimulated with LPS 10 min, then 50 μM for 3 h
Procedure: as §3, §4

Plasma protein binding = type: in vitro ADME; settings: in vitro, read-out: plasma protein binding (% bound) (converted)
Lyn phosphorylation = assay: Western blot of Lyn phosphorylation in RAMOS cells; type: cell-based, human; settings: 24 h
Procedure: as §3, §4

Syk phosphorylation = assay: Western blot of Syk phosphorylation in RAMOS cells; type: cell-based, human; settings: 24 h
Procedure: as §3, §4

pERK 1/2 (Thr202/Tyr204) = assay: Western blot of pERK1/2 in LPS-stimulated RAMOS cells; type: cell-based, human; settings: RAMOS cells stimulated with LPS 10 min, then 50 μM for 3 h
Procedure: as §3, §4

pBTK (Tyr223) [6] = assay: Western blot of BTK phosphorylation in RAMOS cells; type: cell-based, human
Procedure: as §3, §4

Compound	IC50 (U2OS) [µM]	IC50 (CCRF-CEM) [µM]	IC50 (JURKAT) [µM]	IC50 (MRC-5) [µM]	IC50 (HCT116) [µM]	IC50 (BJ) [µM]	IC50 (HCT116p53^–/–) [µM]	activity in RAMOS cells (RAMOS)	IC50 (RAMOS) [µM]	IC50 (A549) [µM]	IC50 (K562) [µM]	PAMPA category [1]	recovery [2] [%]	Papp (MDR1) [×10⁻⁶ cm/s]	efflux ratio (MDR1)	MDR1-MDCK CNS (−ive/+ive) (MDR1-MDCK cells)	active efflux (MDR1-MDCK cells)	microsomal stability (clearance) [3]	Papp [4] [×10⁻⁶ cm/s]	efflux ratio [4]	other results
CC(C)C(=O)N1CCN(S(=O)(=O)c2ccc3c(c2)C(=C2CCCC2)C(=O)N3)CC1 [9a, 3-Cyclopentylidene-5-((4-isobutyrylpiperazin-1-yl)sulfonyl)indolin-2-one]	> 50	> 50	> 50	> 50	> 50	> 50	> 50	no activity	> 50	> 50	> 50										melting point: 165 to 171 °C
O=C1Nc2ccc(S(=O)(=O)N3CCN(C(=O)C4CCCCC4)CC3)cc2C1=C1CCCC1 [9b, 5-((4-(Cyclohexanecarbonyl)piperazin-1-yl)sulfonyl)-3-cyclopentylideneindolin-2-one]	> 50	35.5 ± 7.05	> 50	> 50	> 50	> 50	> 50	selective cytotoxicity; also recorded: showed activity; also recorded: good anticancer activity in the micromole range	3.04 ± 0.56	> 50	> 50	low	60.2	2.92	9.3	CNS –ive	active efflux: yes	metabolized quickly by microsomes and high	3.18	2.69	p-p38 (Thr180/Tyr182) levels (p-p38 (Thr180/Tyr182)): only evidenced on p-p38 (Thr180/Tyr182) levels; recovery [4]: 45.4%; active efflux (Caco-2 cells): active efflux: yes; Caco-2 category (Caco-2 cells): low permeability and low; plasma stability (category) (Plasma stability): stable; pBTK (Tyr223) activation (pBTK (Tyr223) [5]): no significant effect; fraction unbound (Plasma protein binding): 0.114; Lyn phosphorylation (Lyn phosphorylation): significantly inhibited
O=C1Nc2ccc(S(=O)(=O)N3CCN(C(=O)c4cccc(Br)c4)CC3)cc2C1=C1CCCC1 [9f, 5-((4-(3-Bromobenzoyl)piperazin-1-yl)sulfonyl)-3-cyclopentylideneindolin-2-one]	> 50	> 50	> 50	> 50	> 50	> 50	> 50	selective cytotoxicity; also recorded: showed activity; also recorded: good anticancer activity in the micromole range	2.06 ± 0.43	> 50	> 50	low	79.2	3.2	6.93	CNS –ive	active efflux: yes	medium	10.6	3.79	recovery [4]: 74.5%; active efflux (Caco-2 cells): active efflux: yes; Caco-2 category (Caco-2 cells): medium permeability; also recorded: moderate; plasma stability (category) (Plasma stability): stable; fraction unbound (Plasma protein binding): 0.043
CCCCC(=O)N1CCN(S(=O)(=O)c2ccc3c(c2)C(=C2CCCC2)C(=O)N3)CC1 [9h, 3-Cyclopentylidene-5-((4-pentanoylpiperazin-1-yl)sulfonyl)indolin-2-one]	> 50	46.1 ± 3.13	> 50	> 50	> 50	> 50	> 50	selective cytotoxicity; also recorded: showed activity; also recorded: good anticancer activity in the micromole range	2.75 ± 0.8	> 50	> 50	medium	86.9	5.43	13.1	CNS –ive	active efflux: yes	medium	7.18	3.34	p-p38 (Thr180/Tyr182) levels (p-p38 (Thr180/Tyr182)): decrease; Syk phosphorylation (Syk phosphorylation): without affecting; also recorded: did not affect; pERK 1/2 (Thr202/Tyr204) levels (pERK 1/2 (Thr202/Tyr204)): decrease; recovery [4]: 63.2%; active efflux (Caco-2 cells): active efflux: yes; Caco-2 category (Caco-2 cells): medium permeability; also recorded: moderate; plasma stability (category) (Plasma stability): stable; pBTK (Tyr223) activation (pBTK (Tyr223) [5]): significantly inhibited; fraction unbound (Plasma protein binding): 0.0334; pBTK (Tyr223) levels (pBTK (Tyr223) [6]; 24 h, 50 μM): decrease was significant; pBTK (Tyr223) levels (pBTK (Tyr223) [6]; 24 h, 1, 10, and 50 μM): selective inhibition of pBTK (Tyr223); Lyn phosphorylation (Lyn phosphorylation): without affecting; also recorded: did not affect

Source: article PMC10882696, “Novel 5-Substituted Oxindole Derivatives as Bruton’s Tyrosine Kinase Inhibitors: Design, Synthesis, Docking, Molecular Dynamics Simulation, and Biological Evaluation” (ACS Omega, 2024)
